We go through four compounds from article PMC8550792, “Evolution of kinase polypharmacology across HSP90 drug discovery” (Cell Chemical Biology, 2021).

Common to all, as to assay: biochemical
Common to all, as to format: biochemical

Test [1] concerns the target T1, 382 unique human kinases (Homo sapiens, UniProt Q9BQI3).
T1 construct: purchased Reaction Biology (HotSpot contract assay)
To be noted: EIF2AK1, compound at 10 uM, duplicate values; for remaining activity at 10 µM: read-out: % Enzyme Activity (relative to DMSO controls).

The target of test [2] is T2, 382 unique human kinases (Homo sapiens, UniProt P08581, Y1235D).
T2 construct: purchased Reaction Biology (HotSpot contract assay)
To be noted: c-MET (Y1235D), 10 uM; for remaining activity at 10 µM: read-out: % Enzyme Activity (relative to DMSO controls).

The target in test [3] is T3, 382 unique human kinases (Homo sapiens, UniProt P21802, K526E).
T3 construct: purchased Reaction Biology (HotSpot contract assay)
As to conditions: for remaining activity at 10 µM: read-out: % Enzyme Activity (relative to DMSO controls).

The target of test [4] is T4, 382 unique human kinases (Homo sapiens, UniProt Q14164).
T4 construct: purchased Reaction Biology (HotSpot contract assay)
T4 sequence (Q14164 1-716): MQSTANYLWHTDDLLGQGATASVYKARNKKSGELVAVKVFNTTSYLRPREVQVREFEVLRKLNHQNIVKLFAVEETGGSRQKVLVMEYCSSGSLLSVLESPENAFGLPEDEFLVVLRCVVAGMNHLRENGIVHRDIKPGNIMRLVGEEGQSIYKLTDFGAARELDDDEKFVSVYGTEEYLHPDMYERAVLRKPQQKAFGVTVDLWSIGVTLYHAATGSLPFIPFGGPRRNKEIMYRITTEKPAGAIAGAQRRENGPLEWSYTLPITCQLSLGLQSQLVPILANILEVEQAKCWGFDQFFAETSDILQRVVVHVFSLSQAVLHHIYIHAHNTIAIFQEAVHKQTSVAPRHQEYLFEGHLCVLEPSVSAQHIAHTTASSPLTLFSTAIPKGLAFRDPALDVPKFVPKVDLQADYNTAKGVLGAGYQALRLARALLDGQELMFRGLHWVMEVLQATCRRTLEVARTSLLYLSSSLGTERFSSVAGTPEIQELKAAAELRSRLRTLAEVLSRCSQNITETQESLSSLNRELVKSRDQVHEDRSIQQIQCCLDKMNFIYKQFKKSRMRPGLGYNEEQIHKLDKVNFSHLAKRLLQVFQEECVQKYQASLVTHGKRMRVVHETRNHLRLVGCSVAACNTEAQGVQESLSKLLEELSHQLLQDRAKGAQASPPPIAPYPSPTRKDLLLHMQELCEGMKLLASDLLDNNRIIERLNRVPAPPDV
As to conditions: kinase IKKe/IKBKE, compound 10 uM; for remaining activity at 10 µM: read-out: % Enzyme Activity (relative to DMSO controls).

Test [5] addresses T5, 382 unique human kinases (Homo sapiens, UniProt Q8IVT5).
T5 construct: purchased Reaction Biology (HotSpot contract assay)
T5 sequence (Q8IVT5 1-923): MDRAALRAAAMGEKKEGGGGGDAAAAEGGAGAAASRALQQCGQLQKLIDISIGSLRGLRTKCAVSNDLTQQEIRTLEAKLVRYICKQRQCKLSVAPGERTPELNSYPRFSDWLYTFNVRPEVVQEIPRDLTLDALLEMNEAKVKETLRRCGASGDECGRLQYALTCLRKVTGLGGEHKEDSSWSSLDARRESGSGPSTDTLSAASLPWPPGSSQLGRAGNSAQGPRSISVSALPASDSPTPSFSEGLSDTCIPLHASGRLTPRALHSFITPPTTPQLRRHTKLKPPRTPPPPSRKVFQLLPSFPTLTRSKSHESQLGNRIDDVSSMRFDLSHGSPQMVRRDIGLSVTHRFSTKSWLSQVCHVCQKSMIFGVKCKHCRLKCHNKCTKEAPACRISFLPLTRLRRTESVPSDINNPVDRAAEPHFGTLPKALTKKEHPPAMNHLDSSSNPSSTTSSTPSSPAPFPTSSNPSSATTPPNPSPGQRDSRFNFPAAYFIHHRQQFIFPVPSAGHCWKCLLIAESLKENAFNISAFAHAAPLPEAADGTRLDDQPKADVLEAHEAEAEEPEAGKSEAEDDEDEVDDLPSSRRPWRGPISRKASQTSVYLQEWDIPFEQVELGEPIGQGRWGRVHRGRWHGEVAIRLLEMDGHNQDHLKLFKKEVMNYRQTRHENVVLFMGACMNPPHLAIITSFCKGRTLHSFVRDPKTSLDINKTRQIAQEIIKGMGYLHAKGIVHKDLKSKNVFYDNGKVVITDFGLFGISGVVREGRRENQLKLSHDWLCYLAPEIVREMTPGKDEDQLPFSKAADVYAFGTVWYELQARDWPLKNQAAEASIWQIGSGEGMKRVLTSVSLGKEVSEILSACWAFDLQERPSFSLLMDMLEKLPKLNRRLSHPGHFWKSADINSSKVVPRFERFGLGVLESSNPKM
To be noted: KSR1, 10 uM; for remaining activity at 10 µM: read-out: % Enzyme Activity (relative to DMSO controls).

Test [6] deals with T6, 382 unique human kinases (Homo sapiens, UniProt P15056).
T6 construct: purchased Reaction Biology (HotSpot contract assay)
To be noted: BRAF, 10 uM; for remaining activity at 10 µM: read-out: % Enzyme Activity (relative to DMSO controls).

T1 sequence (Q9BQI3 whole entry): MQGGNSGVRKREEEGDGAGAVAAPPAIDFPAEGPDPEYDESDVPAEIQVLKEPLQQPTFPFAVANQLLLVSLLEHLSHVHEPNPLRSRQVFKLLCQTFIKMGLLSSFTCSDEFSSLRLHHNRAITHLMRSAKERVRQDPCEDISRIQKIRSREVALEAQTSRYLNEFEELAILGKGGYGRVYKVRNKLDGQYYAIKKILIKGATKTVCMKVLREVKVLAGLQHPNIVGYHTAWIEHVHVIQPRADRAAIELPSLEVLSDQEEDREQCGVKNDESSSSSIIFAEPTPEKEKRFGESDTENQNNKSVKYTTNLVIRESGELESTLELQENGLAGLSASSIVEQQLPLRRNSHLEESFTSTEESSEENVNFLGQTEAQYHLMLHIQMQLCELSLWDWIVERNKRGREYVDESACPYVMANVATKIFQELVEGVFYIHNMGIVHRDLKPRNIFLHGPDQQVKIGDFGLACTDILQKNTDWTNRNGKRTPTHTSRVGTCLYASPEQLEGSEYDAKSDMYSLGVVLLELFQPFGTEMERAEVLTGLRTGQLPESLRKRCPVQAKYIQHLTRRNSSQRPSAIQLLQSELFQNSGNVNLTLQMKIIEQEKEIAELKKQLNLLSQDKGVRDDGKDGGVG
T3 sequence (P21802 22-821 K526E): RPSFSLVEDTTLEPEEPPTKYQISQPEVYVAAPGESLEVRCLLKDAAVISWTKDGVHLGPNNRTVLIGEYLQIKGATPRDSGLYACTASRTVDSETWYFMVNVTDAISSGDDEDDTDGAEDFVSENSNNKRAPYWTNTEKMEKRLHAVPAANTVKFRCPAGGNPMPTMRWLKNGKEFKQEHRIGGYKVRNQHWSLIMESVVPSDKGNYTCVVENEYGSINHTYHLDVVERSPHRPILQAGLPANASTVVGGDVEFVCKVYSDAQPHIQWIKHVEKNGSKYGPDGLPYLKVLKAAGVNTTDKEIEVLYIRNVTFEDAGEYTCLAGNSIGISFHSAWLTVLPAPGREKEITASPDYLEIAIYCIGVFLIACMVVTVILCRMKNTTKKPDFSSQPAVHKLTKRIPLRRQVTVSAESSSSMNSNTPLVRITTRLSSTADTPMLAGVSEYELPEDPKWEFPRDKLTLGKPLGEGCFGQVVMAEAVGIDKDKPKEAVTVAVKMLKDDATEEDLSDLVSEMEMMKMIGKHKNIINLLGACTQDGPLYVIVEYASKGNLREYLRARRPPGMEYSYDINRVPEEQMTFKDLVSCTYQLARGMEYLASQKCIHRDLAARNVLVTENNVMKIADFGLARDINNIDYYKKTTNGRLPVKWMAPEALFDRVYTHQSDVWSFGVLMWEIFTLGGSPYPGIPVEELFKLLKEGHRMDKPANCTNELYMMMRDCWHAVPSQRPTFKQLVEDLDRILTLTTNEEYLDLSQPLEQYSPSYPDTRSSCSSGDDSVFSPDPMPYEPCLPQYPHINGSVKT
T6 sequence (P15056 whole entry): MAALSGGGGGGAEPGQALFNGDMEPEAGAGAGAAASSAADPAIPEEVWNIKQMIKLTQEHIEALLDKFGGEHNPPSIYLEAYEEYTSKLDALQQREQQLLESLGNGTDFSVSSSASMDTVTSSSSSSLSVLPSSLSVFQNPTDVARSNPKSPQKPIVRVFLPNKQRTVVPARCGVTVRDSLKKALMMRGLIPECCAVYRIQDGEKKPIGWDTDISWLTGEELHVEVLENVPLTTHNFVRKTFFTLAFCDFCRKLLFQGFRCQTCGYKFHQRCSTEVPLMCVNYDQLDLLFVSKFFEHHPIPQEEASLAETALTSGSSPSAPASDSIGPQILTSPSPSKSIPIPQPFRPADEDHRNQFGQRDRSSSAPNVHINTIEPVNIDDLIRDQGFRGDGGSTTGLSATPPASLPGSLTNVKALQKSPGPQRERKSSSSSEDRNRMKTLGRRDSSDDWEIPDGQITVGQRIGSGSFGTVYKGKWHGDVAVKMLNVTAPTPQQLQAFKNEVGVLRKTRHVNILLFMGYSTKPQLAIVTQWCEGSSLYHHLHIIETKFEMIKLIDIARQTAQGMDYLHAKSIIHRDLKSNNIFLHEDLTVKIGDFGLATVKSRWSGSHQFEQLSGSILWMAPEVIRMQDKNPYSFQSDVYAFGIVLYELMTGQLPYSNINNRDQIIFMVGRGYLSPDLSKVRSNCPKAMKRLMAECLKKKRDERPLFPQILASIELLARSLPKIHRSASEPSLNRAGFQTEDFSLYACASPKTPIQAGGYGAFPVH

Regarding `CC(C)c1cc(-c2n[nH]c(=O)n2-c2ccc3c(ccn3C)c2)c(O)cc1O` [Ganetespib (STA9090)], the remaining activity at 10 µM in test [1] was found to be 110%; in test [2] it was 102%; in test [3], 68.8%; in test [4] it was 95.7%.
On to `CC(C)c1cc(-c2n[nH]c(=O)n2-c2ccc3c(ccn3C)c2)c(O)cc1O` [Ganetespib], for which the remaining activity at 10 µM in test [5] worked out at 99.8%; in test [6], 98.1%.
With `CCNC(=O)c1noc(-c2cc(C(C)C)c(O)cc2O)c1-c1ccc(CN2CCOCC2)cc1` [Luminespib (AUY-922)], the “% Enzyme Activity (relative to DMSO controls)” value worked out at 122.69% in test [1], 71.05% in test [2], 99.92% in test [3] and 104.37% in test [4]. In addition, the remaining activity at 10 µM is 127% in test [1], 73.3% in test [2], 102% in test [3] and 109% in test [4].
For `CCNC(=O)c1noc(-c2cc(C(C)C)c(O)cc2O)c1-c1ccc(CN2CCOCC2)cc1` [Luminespib], the “% Enzyme Activity (relative to DMSO controls)” value in test [5] was 97.63%; in test [6], 103.97%. Also, the values for the remaining activity at 10 µM in test [5] and in test [6] were 98.8% and 105%, respectively.
